# Results: paper PMC11259170, “Small-molecule probe for IBD risk variant GPR65 I231L alters cytokine signaling networks through positive allosteric modulation” (Science Advances, 2024)
# Like-named read-outs stand apart in the source and are kept apart here.
# How the values were obtained:
# [1] = system: WT HeLa cells expressing hGPR65; assay: Cytotoxicity assay (CellTiter-Glo, 72 hours); format: cell-based, human
# Protocol: WT HeLa cells expressing hGPR65 were seeded at 2000 cells per well in 384-well plates. Compounds were tested in 10-point dose, starting at 50 μM. Cells were incubated with compounds for 72 hours at 37°C, 5% CO2. Cytotoxicity was measured using CellTiter-Glo Luminescent Cell Viability Assay (Promega, G7572) according to the manufacturer’s protocol. Luminescence measurements were made on BMG Labtech PHERAstar FSX. Data analysis was performed using GraphPad Prism.
# [2] = system: human monocyte-derived dendritic cells (MDDCs); assay: Cytokine (TNF) production in human MDDCs, ELISA; format: cell-based; conditions: LPS 100 ng/ml, 3 hours
# Protocol: Human blood samples were collected from healthy donors at the Blood Donor Center at Massachusetts General Hospital in compliance with all relevant ethical regulations and according to protocol 2018P001504 approved by the Mass General Brigham Institutional Review Board. Donors provided informed written consent. Human PBMCs were isolated by density gradient separation using Ficoll-Paque PLUS (VWR- GE Life Sciences, catalog no. 17144002), as previously described ([54]). Isolated PBMCs were incubated overnight in DMEM (10% FBS, 0.2% sodium bicarbonate, 1X Glutamax) at 37°C, 5% CO2. Human monocytes were isolated from an unpurified Buffy Coat using RosetteSep human monocyte enrichment cocktail (StemCell Technologies, 15068) and frozen same day in FBS with 10% DMSO. […]
# Frozen human monocytes were thawed and allowed to recover overnight in DMEM [10% FBS, 1% p/s, IL-4 (50 ng/ml; Peprotech, 200-04), and GM-CSF (50 ng/ml; Peprotech, 300-03)] at 37°C and 5% CO2. […] Supernatants were collected and TNF production was measured by ELISA (Invitrogen, 88-7346-88). Plates were read on BMG Labtech PHERAstar FSX. […]
# Lipophilicity (logD) = format: physicochemical
structure (smiles),measurement,setting,value
"Cc1ccc(NC(=O)c2cnn3c(O)cc(-c4ccc(COC(C)C)cc4)nc23)nc1 [BRD5075, O=C(NC1=NC=C(C)C=C1)C2=C3N(N=C2)C(O)=CC(C4=CC=C(COC(C)C)C=C4)=N3]",cell viability,"[1]; 50 μM, 72 hours",slight decrease in cell viability
same,cytotoxicity,"[1]; 72-hour incubation, 0-50 μM",not cytotoxic
same,TNF secretion,[2]; 5 μM,did not reach statistical significance
same,TNF secretion,[2]; 20 μM,further TNF suppression
same,logD,"Lipophilicity (logD); pH 7.4, pH7.4, read-out: LogD (pH7.4)",3.57
same,logD,Lipophilicity (logD); read-out: lipophilicity (logD),3.57
